Consider 6 compounds from patent US5565447A, “Indole derivatives” (Laboratorios Almirall S.A., priority 1992, dated 1996).

For one series, the target named is T1, 5HT1A receptors (Rattus norvegicus, UniProt P19327).
T1 sequence (P19327 1-422): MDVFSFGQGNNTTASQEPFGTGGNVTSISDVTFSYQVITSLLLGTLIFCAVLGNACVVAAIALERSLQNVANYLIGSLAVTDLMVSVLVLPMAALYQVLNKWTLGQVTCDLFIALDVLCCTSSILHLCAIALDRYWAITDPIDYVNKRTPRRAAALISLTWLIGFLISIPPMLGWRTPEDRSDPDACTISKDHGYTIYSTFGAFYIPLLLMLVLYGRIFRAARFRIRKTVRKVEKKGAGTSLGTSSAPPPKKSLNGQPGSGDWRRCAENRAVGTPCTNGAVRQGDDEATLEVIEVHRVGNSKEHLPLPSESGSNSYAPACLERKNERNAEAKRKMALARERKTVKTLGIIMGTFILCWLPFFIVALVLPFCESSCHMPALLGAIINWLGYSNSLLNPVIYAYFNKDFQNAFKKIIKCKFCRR
In words: Binding to 5HT1A receptors (3H-8-OH-DPAT displacement, rat hippocampus membranes). On the procedure:
Binding to 5HT1A receptors
Assays were performed essentially as described by Gozlan et al (1983). Varying amounts of tested drugs were added to 1 mL final volume reaction mixtures that included 100 μg of rat hippocampus membrane protein, 0.5 nM ^3 H-8-OH-DPAT, 4 mM CaCl2, 0.1% ascorbic acid, 10 μM pargyline and 50 mM Tris HCl buffer, pH 7.4. After incubation at 25° C. for 30 minutes, samples were filtered under reduced pressure using glass fibre filters. The filters were washed with ice-cold buffer and dried. Non-specific binding was defined as that obtained in the presence of 10 μM 5HT. Radioactivity was quantified by scintillation counting and data was handled as described for the 5HT1D binding assay. (Gozlan H.; El Mestikawy S.; Pichat L.; Glowinski J. and Hamon M. (1983). Identification of presynaptic serotonin autoreceptors using a new ligand:^3 H-PAT. Nature 305, 140-142).

In series [1] the target is T2, 5HT1D receptors (Bos taurus, UniProt F1MGM3).
T2 construct: calf caudate nucleus membrane protein; from tissue; host or cells: calf caudate nucleus membranes
The series can be described thus: Binding to 5HT1D receptors (125I-GTI displacement, calf caudate nucleus membranes). How it is done: (§1) Binding to 5HT1D Receptors
(§2) Assays were performed essentially as described by Bruinvels et al. Varying amounts of tested drugs were added to 0.25 mL final volume reaction that included 100 μg of calf caudate nucleus membrane protein, 100 pM (Serotonin-5-0-Carboxymethyl-Glycyl[^125 I]Tyrosinamide (^125 I-GTI), 4 mM CaCl2 and 50 mM Tris HCl buffer, pH 7.4. After incubation at 37° C. for 30 minutes, samples were filtered under reduced pressure using glass fibre filters. The filters were washed with ice-cold buffer and dried. Non-specific binding was defined as that obtained in the presence of 10 μM 5HT. Trapped radioactivity was quantified using a gamma counter. Displacement curves were constructed and the concentration displacing 50% of radioligand was calculated for each tested compound using non-linear regression. Data from at least three different assays run in duplicate was averaged. (Bruinvels A. T.; Lery H.; Palacios J. M. and Hoyer D. 5-HT1D binding sites in various species: similar pharmacological profile in dog, monkey, calf, guinea-pig and human brain membranes. Naunyn-Schmiedeberg's Arch. Pharmacol. (in press)).

Series [2] concerns 5HT1D receptors. The description is as above. The conditions noted are these: ratio of binding IC50 values, 3H-8-OH-DPAT over 125I-GTI. How it is done:
as §1, §2

In a further series the test system is Dog saphenous vein. In words: Dog saphenous vein isometric recording (contraction, pD2). The conditions noted are these: Canis lupus familiaris; isolated lateral saphenous vein rings, 37° C., in presence of 5-HT2, H1 and muscarinic antagonists; serotonin 1 μM as reference standard. It is filed as cell-based, beagle dog. How it is done: Isometric recordings were performed essentially as described by Humphrey et al (1988). Briefly, lateral saphenous vein ring preparations (3 mm. wide) removed from anaesthetized beagle dogs were suspended under 2g. resting tension, in 30 mL organ baths containing Krebs at 37° C. The experiments were carried out in the presence of 5-HT2, H1 and muscarinic antagonists and serotonin 1 μM was used as quantitative reference standard.
(Humphrey P. P. A.; Feniuk W.; Perren M. J.; Connor H. E.; Oxford A. W .; Coates I. H. and Butina D. (1988). GR 43175, a selective agonist for the 5-HT1-like receptor in dog isolated saphenous vein. Br. J. Pharmac. 94, 1123-1132).

Series [3] deals with 5-HT1A receptor. The conditions noted are these: attributed to affinity for 5-HT1A receptor; cited from earlier work.
The next series relates to 5-HT1D receptor. To be noted: background statement; cited from earlier work.
For series [4], the system named is 5-HT1A receptor. To be noted: background statement; cited from earlier work.
The test system of another series is "5-HT1 -like" receptors. The conditions noted are these: agonistic action at "5-HT1 -like" receptors; background statement; cited from earlier work.
[5] abbreviates: 5HT1A, rat hippocampus membrane, 0.5 nM 3H-8-OH-DPAT, pH 7.4, 25° C., 30 minutes, read-out: Binding IC50 3H-8-OH-DPAT.
[6] abbreviates: 5HT1D, calf caudate nucleus membrane, 100 pM 125I-GTI, pH 7.4, 37° C., 30 minutes, read-out: Binding IC50 125I-GTI.

Like-named read-outs stand apart in the source and are kept apart here.

T2 sequence (F1MGM3 1-403): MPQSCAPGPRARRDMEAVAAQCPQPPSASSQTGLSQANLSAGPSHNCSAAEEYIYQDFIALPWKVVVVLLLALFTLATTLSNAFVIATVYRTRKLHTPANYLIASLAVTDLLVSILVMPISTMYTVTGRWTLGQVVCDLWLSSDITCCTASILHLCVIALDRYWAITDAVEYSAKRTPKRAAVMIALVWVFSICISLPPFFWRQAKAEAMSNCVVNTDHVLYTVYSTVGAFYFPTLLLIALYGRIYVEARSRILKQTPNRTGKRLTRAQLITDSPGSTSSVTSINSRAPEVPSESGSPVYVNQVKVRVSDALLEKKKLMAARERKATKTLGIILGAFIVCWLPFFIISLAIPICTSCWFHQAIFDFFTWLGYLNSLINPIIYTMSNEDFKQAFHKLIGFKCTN

In the case of `CN(C)CCc1c[nH]c2ccc(CS(=O)(=O)N3CCCC3)cc12.Cl` [Compound 1, 1-[[3-(2-dimethylaminoethyl)-5-indolyl]methanesulphonyl]-pyrrolidine hydrochloride], the IC50 (usually the concentration that inhibits the measured activity by half) on 5HT1A receptors (setting [5]) was 825 ± 69 nM; at 5HT1D receptors [1] (setting [6]), 10.7 ± 0.4 nM. For the same compound, the 5HT1A/5HT1D with 5HT1D receptors [2] was found to be 77.1. For the same compound, the EC50 (commonly the concentration giving half of the maximal effect) with Dog saphenous vein is 871 nM.

Take `CN(C)CCc1c[nH]c2ccc(CS(=O)(=O)N3CCCCC3)cc12.Cl` [Compound 2, 1-[[3-(2-dimethylaminoethyl)-5-indolyl]methanesulphonyl]piperidine hydrochloride]: the values for the IC50 at 5HT1A receptors and on 5HT1D receptors [1] were 340 ± 0.5 nM and 6.9 ± 0.4 nM, respectively. Also, the 5HT1A/5HT1D in the series with 5HT1D receptors [2] is 49.3.

As to `CCOC(=O)N1CCN(S(=O)(=O)Cc2ccc3[nH]cc(CCN(C)C)c3c2)CC1` [Compound 11], the IC50 was determined as 850 ± 40 nM at 5HT1A receptors (setting [5]) and 3.2 ± 0.3 nM on 5HT1D receptors [1]. In addition, in the series on 5HT1D receptors [2], the 5HT1A/5HT1D worked out at 265.6. In addition, the EC50 with Dog saphenous vein is 339 nM.

With `CNS(=O)(=O)Cc1ccc2[nH]cc(CCN(C)C)c2c1` [Sumatriptan, reference compound], the “hypotension and other side effects” value in the series with 5-HT1A receptor [3] is “causes hypotension by a central nervous system action and other side effects”. The figures for the IC50 on 5HT1A receptors and at 5HT1D receptors [1] (setting [6]) were 460 ± 67 nM and 10.4 ± 1 nM, respectively. Moreover, the 5HT1A/5HT1D in the series with 5HT1D receptors [2] is 44.2. Besides, the EC50 in the series with Dog saphenous vein was 871 nM. For the same compound, in the series on 5-HT1D receptor, the “affinity for 5-HT1D receptor” value is on record as “high affinity for 5-HT1D receptor”. Besides, the “affinity for 5-HT1A receptor” value in the series with 5-HT1A receptor [4] was “very important affinity for 5-HT1A receptor”.

Take `CN1C[C@H](C(=O)N[C@]2(C)O[C@@]3(O)[C@@H]4CCCN4C(=O)[C@H](Cc4ccccc4)N3C2=O)C=C2c3cccc4[nH]cc(c34)C[C@H]21` [ergotamine]: in the series with "5-HT1 -like" receptors, the “vasoconstrictor action in the carotid vascular bed” value was “vasoconstrictor action in the carotid vascular bed”.

For `NCCc1c[nH]c2ccc(O)cc12` [serotonine, 5-Hydroxytryptamine], the “vasoconstrictor action in the carotid vascular bed” value in the series with "5-HT1 -like" receptors is “vasoconstrictor action in the carotid vascular bed”.
